From US9365597B2, “Mitochondria-targeted inhibitors of cytochrome c peroxidase for protection from apoptosis” (Brock University, priority 2011, dated 2016)

How the values were obtained:
mouse embryonic cells = test: γ-Irradiation induced apoptosis in mouse embryonic cells (PS externalization Annexin V/PI, caspase 3/7, cyt c release); format: cell-based; details: for necrotic cells (PI-positive, Annexin V-positive) after irradiation and treatment / apoptotic cells (PI-negative, Annexin V-positive) after irradiation and treatment: 10 Gy; for necrotic cells (PI-positive, Annexin V-positive) after irradiation and treatment: irradiated only 12.9%; for apoptotic cells (PI-negative, Annexin V-positive) after irradiation and treatment: irradiated only 28.9%
Description: Mouse embryonic cells were seeded on a 35 mm dish at a cell density of 5×10^4/dish, and allowed to attach overnight. The cells were γ-irradiated at a dose of 10 Gy using a Shepherd model 143-45A irradiator (J.L. Shepherd & Associates, CA). Ten min after irradiation, different concentrations of TPP-ISA or TPP-IOA (2.5 and 5 μM) were added and cells were incubated at 37° C. in 5% CO2 for 48 h. Then, cells were harvested for measuring phosphatidylserine externalization by an Annexin V/PI kit and caspase 3/7 activity using a Caspase-Glo® 3/7 Assay kit. Data are means±S.D., n=3. *p<0.01 vs. irradiated only cells.
Phosphatidylserine externalization was determined by an Annexin V-FITC apoptosis detection kit (Biovision) according to the manufacturer's instructions.
Caspase-3/7 activity was measured using a luminescence Caspase-Glo 3/7 assay kit (Promega) according to the manufacturer's instructions.
Cells were collected after 48 h post-irradiation incubation and resuspended in lysis buffer containing 0.05% digitonin for 4 min on ice. Supernatants were collected after centrifugation for 10 min at 10,000 g. Equal amounts of protein were subject to 15% SDS-PAGE, transferred onto a nitrocellulose membrane, and probed with antibodies against cyt c (clone 7H, 8.2; C12, BD Pharmingen) or actin (Novus) (loading control) followed by horseradish peroxidase-coupled detection. The protein band profile was analysed by densitometry using Labworks image acquisition and analysis software (UVP).

cyt c/TOCL complexes = target: T1, cyt c/TOCL complexes (Equus caballus, UniProt P00004); test: Peroxidase activity of cyt c/TOCL complexes, H2O2-induced oxidation of Amplex Red to resorufin; format: biochemical; details: cyt c 1 μM, CL/cyt c 25:1, 50 μM Amplex Red, 50 μM H2O2, 20 min
T1 construct: purchased Sigma (St. Louis, Mo.)
T1 sequence (P00004 2-105 limits assumed, one chain of several): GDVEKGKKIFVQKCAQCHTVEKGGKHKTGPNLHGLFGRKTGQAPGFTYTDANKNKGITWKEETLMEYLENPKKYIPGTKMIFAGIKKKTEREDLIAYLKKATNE
Description: Conditions: cyt c (1 μM), H2O2 (50 μM), Amplex Red (50 μM). Experiments were performed in 20 mM HEPES buffer (pH 7.4) containing DTPA (100 μM), cyt c was incubated with DOPC/TOCL liposomes (1:1) at a ratio of TOCL:cyt c of 25:1.
Peroxidase activity of cyt c was assessed by oxidation of Amplex Red, etoposide or TLCL (tetra-linoleoyl-cardiolipin). Measurements of Amplex Red oxidation were performed using fluorescence of its oxidation product resorufin. Cyt c (1 μM) was incubated with tetra-oleoyl-cardiolipin (TOCL) containing liposomes (CL/cyt c ratio 25:1). Then 50 μM Amplex Red and 50 μM H2O2 were added, and the incubation proceeded for an additional 20 min. Fluorescence was detected by employing a “Fusion α” universal microplate analyzer and by using an excitation wavelength of 535 nm and an emission wavelength of 590 nm. EPR spectra of etoposide phenoxyl radicals were recorded at 25° C. in gas permeable Teflon tubings (inner diameter, 0.8 mm; thickness, 0.013; Alpha Wire Corp., Elizabeth, N.J.). Volume of samples was 60 μL. The spectra were recorded under the following conditions: 335.3 mT, center field; 2 mT, sweep width; 0.04 mT, field modulation; 10 mW, microwave power; 0.1 s, time constant; 2 min, time scan. The time course of the etoposide radical EPR signal was obtained by repeated scanning of the field (0.15 mT, sweep width; 335.3 mT, center field) corresponding to a part of the EPR signal. Peroxidase activity of mitochondria was determined by the formation of resorufin from Amplex Red. Isolated mouse liver mitochondria (0.6 mg/ml) were incubated in the presence of 100 μM Amplex Red and 2 mM tert-butyl hydroperoxide (tBOOH). After incubation at room temperature for 20 min, fluorescence of resurufin was measured.
Small unilamellar liposomes were prepared from dioleoylphosphatidylcholine (DOPC) and TOCL (1:1 ratio) or DOPC and TLCL (4:1 ratio) by sonication in HEPES buffer (20 mM with 100 μM diethylene triamine pentaacetic acid (DTPA) (pH 7.4) 3×60 sec, relaxation time 2 min, 4° C.).
Peroxidase activity of cyt c was assessed by oxidation of Amplex Red, etoposide or TLCL as described above.

SMILES	necrotic cells (PI-positive, Annexin V-positive) after irradiation and treatment (mouse embryonic cells) [%]	apoptotic cells (PI-negative, Annexin V-positive) after irradiation and treatment (mouse embryonic cells) [%]	decrease in the number of apoptotic cells (mouse embryonic cells; versus irradiated only cells)	reduction in the number of necrotic cells (mouse embryonic cells; versus irradiated only cells) [fold]	inhibition of peroxidase activity of cyt c/TOCL complexes (Amplex Red oxidation) (cyt c/TOCL complexes)
CCCCCCC(C/C=C\CCCCCCCC(=O)OCCC[P+](c1ccccc1)(c1ccccc1)c1ccccc1)n1ccnc1.[Br-] (centres unmarked) [TPP-IOA]	8.2	14.8	twofold	1.6	as effective as non-conjugated ISA and IOA
CCCCCCC(CCCCCCCCCCC(=O)OCCC[P+](c1ccccc1)(c1ccccc1)c1ccccc1)n1ccnc1.[Br-] (centres unmarked) [TPP-ISA]	7.8	13.9			as effective as non-conjugated ISA and IOA
